The results in this text go back to US12528846B2, “BH4 stabilized peptides and uses thereof” (Dana-Farber Cancer Institute, Inc., priority 2013, dated 2026).

Data set [1] in a line: Hydrogen/deuterium mass spectrometry (HXMS) of BH4 SAHB peptide alone (structural stability). The data set is classed as physicochemical. The conditions noted are these: deuterium labeling 2 seconds to 1 hour. As for the experimental part: (§1) The structural stability of the BCL-2 BH4 staple-scan panel of SAHBs was determined by hydrogen/deuterium mass spectrometry (HXMS). In these experiments, the BH4 SAHBs were labeled with deuterium for 2 seconds, 5 seconds, 10 seconds, 1 minute, 10 minutes, and 1 hour, followed by quenching with cold phosphate buffer (pH 2.5), and then immediately subjected to desalting and injection on a LCT Premier Mass Spectrometer (Waters Corporation). The relative uptake of deuterium was determined for each BH4 SAHB by dividing the mass of the corresponding undeuterated control. Labeling was performed with the BH4 SAHB peptide alone and following a 15-minute pre-equilibration with recombinant BAX protein (purified as previously described in Walensky et al. (Mol. Cell 24:199-210, 2006) and Gavathiotis et al. (Nature 455:1076-1081, 2008)) at a 1:2 BAX protein to BH4 SAHB peptide molar ratio.

The target of data set [2] is T1, Recombinant BAX (Homo sapiens, UniProt Q07812).
T1 construct: made in house
T1 sequence (Q07812 whole entry): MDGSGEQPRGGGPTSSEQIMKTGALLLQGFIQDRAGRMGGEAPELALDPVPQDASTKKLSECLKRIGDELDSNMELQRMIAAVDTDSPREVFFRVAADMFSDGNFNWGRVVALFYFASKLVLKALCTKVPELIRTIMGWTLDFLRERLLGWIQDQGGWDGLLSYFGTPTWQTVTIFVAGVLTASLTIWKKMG
Description: HXMS of BH4 SAHBs after pre-equilibration with recombinant BAX protein. The note with it: 15-minute pre-equilibration, 1:2 BAX protein to BH4 SAHB molar ratio. It counts as binding. As to the method:
as §1

For data set [3], the target named is T1, Recombinant BAX. Description: Liposomal ANTS/DPX release, heat-induced BAX activation. The data set is classed as biochemical. The note with it: 500 nM BAX, liposomes, 37° C.
The target in data set [4] is T1, Recombinant BAX. Kind of data set: Liposomal ANTS/DPX release, BIM SAHBA-triggered BAX activation. The data set is classed as biochemical. The note with it: 1.5 μM BIM SAHBA, 0.75 μM BAX, variety of peptide concentrations. As for the experimental part: In these experiments, the BCL-2 BH4 SAHBA and unmodified BCL-2 BH4 peptide were incubated with 1.5 μM BIM SAHBA (Gavathiotis et al., Nature 455:1076-1081, 2008), 0.75 μM recombinant BAX protein, and 5 μL liposomes loaded with the ANTS and DPX (described above) at a variety of different concentrations.
A complete panel of BCL-2 BH4 SAHBA alanine and glutamine point mutants (0.75 μM) were screened for inhibition of BIM SAHBA (0.75 μM)-triggered BAX activation (0.75 μM) using the liposome release assay described above. The data were normalized to a 100% percent positive control level of liposome release achieved using BIM SAHBA and BAX alone, after correction for any intrinsic fluorescence detected for each FITC-labeled BCL-2 BH4 SAHB (0%). […] The alanine scanning data are also useful for designing the placement of staples in the BCL-2 BH4 peptides.

The target in data set [5] is T1, Recombinant BAX. Description: HXMS of recombinant BAX with or without BCL-2 BH4 SAHBA. It counts as binding. The note with it: two molar excess of peptide, 10 seconds to 2 hours. As to the method: In additional studies, recombinant BAX protein was labeled with deuterium in the presence or absence of a two molar access of BCL-2 BH4 SAHBA for 10 seconds, 1 minute, 10 minutes, and 2 hours. Following the corresponding incubation period in D20 buffer, each sample was quenched with ice-cold phosphate buffer (pH 2.5) and injected on a custom Waters NanoACQUITY UPLC HDX Manager for analysis as described in Wales et al. (Anal. Chem. 80:6815-6820, 2008). Mass spectra were obtained with a Synapt G2 mass spectrometer (Waters Corporation) and analyzed with the DynamX software package (Waters Corporation). The data shown in FIG. 15A are the average of two duplicate experiments, where the relative difference (Da) shown for each peptide is equivalent to the relative deuterium uptake of the corresponding peptide in the BAX alone control minus the relative deuterium uptake of the peptide in the BCL-2 BH4 SAHBA-bound BAX sample. A significant relative difference is established as 0.4 Da. […] A significant relative difference in uptake is observed in the region of BAX al and the loop between α1 and α2, indicative of structural stabilization of this region of BAX protein as a result of BCL-2 BH4 SAHBA binding.

Data set [6] concerns the target T1, Recombinant BAX. Description: HXMS of recombinant BAX with liposomes, BIM SAHB with or without BCL-2 BH4 SAHBA. The data set is classed as biochemical. The note with it: molar equivalent of BIM SAHB plus two molar excess of peptide. As for the experimental part: Recombinant BAX protein was pre-equilibrated for 15 min with liposomes in the presence or absence of a molar equivalent of BIM SAHB (FIG. 15B) or a molar equivalent of BIM SAHB and a two molar excess of BCL-2 BH4 SAHBA (FIG. 15C), and then labeled with deuterium for 10 seconds, 1 minute, 10 minutes, and 2 hours. Following the corresponding incubation period in D20 buffer, each sample was quenched with ice-cold guanidine chloride buffer (pH 2.6) and then subjected to proteolysis on ice for 5 minutes. The samples were next injected on a custom Waters NanoACQUITY UPLC HDX Manager for analysis as described above. Mass spectra were obtained with a Synapt G2 mass spectrometer (Waters Corporation) and analyzed with the DynamX software package (Waters Corporation). The data shown in FIG. 15B are the duplicate of two experiments, where the relative difference (Da) shown for each BAX peptide fragment is equivalent to the relative deuterium uptake of the peptide in the BIM SAHB-activated BAX sample minus the relative deuterium uptake of the corresponding peptide in the BAX alone control. […] Mass spectra were obtained with a Synapt G2 mass spectrometer (Waters Corporation) and analyzed with the DynamX software package (Waters Corporation). […]

The target of data set [7] is T1, Recombinant BAX. Description: BAX 6A7 immunoprecipitation (N-terminal conformational activation). The data set is classed as biochemical. The conditions noted are these: 1 μM BAX, liposomes, 1 μM BIM SAHB, peptide 0-2.0 μM, 30 min. As for the experimental part: An additional experiment was performed to determine whether BCL-2 BH4 SAHB binding would be capable of preventing the N-terminal unfolding characteristic of activated BAX. In this experiment, recombinant BAX was incubated with liposomes and a molar equivalent of BIM SAHB in the presence of increasing amounts of BCL-2 BH4 SAHBA or BCL-2 BH4 SAHBA L23A. After a 30 min pre-incubation period to allow for activation to proceed, the liposomal mixtures were subjected to immunoprecipitation with the BAX 6A7 antibody (Santa Cruz), which specifically recognizes the N-terminal epitope on BAX (residues 12-24) that is exposed during activation (Hsu et al., 1997). Immunoprecipitated protein was resolved by electrophoresis and immunoblotted with an antibody specific for BAX. […] Importantly, the L23A mutant version of the BH4 peptide, which was shown in the liposomal release assay to disrupt its inhibitory activity, had no effect on BAX 6A7 reactivity. The BAX 6A7 immunoprecipitation was carried out as follows. Recombinant BAX (1 μM) was mixed with liposomes and 1 μM BIM SAHB in the presence of increasing doses of BCL-2 BH4 SAHBA or BCL-2 BH4 SAHBA L23A (0 μM, 0.25 μM, 0.5 μM, 1.0 μM, and 2.0 μM). Following a 30 min incubation at room temperature, the mixture was immunoprecipitated with a-BAX 6A7 (Santa Cruz) and resolved by electrophoresis. […]

Another data set has as its target T2, endogenous BAX (Homo sapiens, UniProt Q07812).
T2 construct: endogenous in cells; host or cells: HeLa
Description: Streptavidin pull-down of biotinylated SAHB from HeLa cell lysates. It counts as binding. The conditions noted are these: 20 μM biotinylated peptide, 16 hrs at 4° C. As to the method:
HeLa cell lysates (0.5 mg) were incubated with vehicle (DMSO), biotinylated BCL-2 BH4 SAHBA (20 μM), or BCL-2 BH4 SAHBA L23A (20 μM) for 16 hrs at 4° C. prior to addition of high-capacity streptavidin agarose resin (Thermo Scientific). After three successive washes, associated protein was eluted from the resin into LDS sample buffer and analyzed by Western blot with the anti-BAX N20 antibody (Santa Cruz). […] The immunoblot in FIG. 19B is representative of three independent experiments.

The subject of data set [8] is BAX-overexpressing HeLa cells. Kind of data set: Viability of transfected HeLa cells treated with staurosporine (CellTiter-Glo). The data set is classed as cell-based. The note with it: 325 nM staurosporine, 24-hour treatment. As for the experimental part: Viability of the transfected cells subjected to 24-hour treatment with 325 nM staurosporine or no treatment with staurosporine was determined by addition of CellTiter-Glo reagent (Promega). The data shown in FIG. 20A are representative of three independent experiments.
This BCL-2-based rescue is negated upon co-expression of BAX with the L23A mutant form of BCL-2 (FIG. 20A).
On the technique in general: In ATP-based viability assays light output follows the ATP content of the culture.

The structures appear in SMILES notation. Entries after “also recorded” stand apart in the source; their conditions may differ. Positions of bridges follow the written chain, without caps; N, C: chain ends. Non-standard residues stand in square brackets, D forms with d. Residues, ends and D or L forms follow the SMILES beside them. S5 = C=CCCC[C@](C)(N)C(=O)O; Nle = CCCC[C@H](N)C(=O)O

T2 sequence (Q07812 whole entry): as above

For `CCCC[C@H](NC(=O)[C@@H](NC(=O)[C@@H](NC(=O)[C@H](CCC(=O)O)NC(C)=O)[C@@H](C)CC)C(C)C)C(=O)N[C@@H](CCCCN)C(=O)N[C@@H](Cc1ccc(O)cc1)C(=O)N[C@H](C(=O)N[C@@H](Cc1c[nH]cn1)C(=O)N[C@@H](Cc1ccc(O)cc1)C(=O)N[C@@H](CCCCN)C(=O)N[C@@H](CC(C)C)C(=O)N[C@@H](CO)C(=O)N[C@@]1(C)CCCC=CCCC[C@@](C)(C(=O)N[C@@H](Cc2c[nH]c3ccccc23)C(=O)N[C@@H](CC(=O)O)C(=O)N[C@@H](C)C(N)=O)NC(=O)[C@H](Cc2ccc(O)cc2)NC(=O)CNC(=O)[C@H](CCCNC(=N)N)NC1=O)[C@@H](C)CC` [BCL-2 BH4 SAHBA] (Ac-EIV[Nle]KYIHYKLS[S5]RGY[S5]WDA-NH2; staple 13-17; N-terminus and C-terminus assumed), the “relative deuterium uptake of BH4 SAHB peptide alone” value in data set [1] is reported as “markedly reduced uptake”. Besides, the “deuterium uptake of BH4 SAHB upon addition of recombinant BAX protein” value at Recombinant BAX [2] is reported as “reduced uptake”. Also, on Recombinant BAX [3], the “heat-induced activation of BAX and BAX-mediated poration” value is reported as “dose-responsively decreased”. Besides, the “BAX activation in response to BIM SAHBA treatment (liposomal poration)” value on Recombinant BAX [4] was “dose-responsively decreased; also recorded: dose-responsively blocks”. Besides, the “deuterium uptake by BAX protein upon peptide engagement” value at Recombinant BAX [5] was “decrease in deuterium uptake”. On Recombinant BAX [6], the “differences in relative uptake of BIM SAHB-treated BAX compared to BAX alone” value is listed as “complete suppression; also recorded: can block the changes in BAX conformation”. Further, the “BAX 6A7 reactivity (BIM SAHB-triggered BAX activation)” value on Recombinant BAX [7] is recorded as “dose-responsively reduces; also recorded: dose-responsively inhibited”. Further, the “pull-down of BAX from HeLa cell lysates” value at endogenous BAX is reported as “specifically interacted”; on endogenous BAX (listed as biotinylated-BCL-2 BH4 SAHBA) it was “specifically immunoprecipitated”.

Consider `CN[C@@H]1C[C@H]2O[C@@](C)([C@@H]1OC)n1c3ccccc3c3c4c(c5c6ccccc6n2c5c31)C(=O)NC4` [staurosporine], for which the “apoptosis of transfected HeLa cells” value in [8] is “induces apoptosis”.
